From article PMC12895000, “Structural and computational supported development of 2,5-disubstituted-1,3,4-oxadiazole analogues as active LOX, urease, and α-glucosidase inhibitors” (Scientific Reports, 2026)

Molecular target: α-glucosidase (Saccharomyces cerevisiae, UniProt P53341)
Type: biochemical
Experimental: Inspection of α-glucosidase inhibition was made by using protocol mentioned in literature. 10 µl (0.057 units) of purified enzyme, 10 µl (0.5 mM) of the test compound and 70 µl (50 mM) of sodium phosphate buffer (pH = 6.8) were collected in a 96-well plate. Pre-incubation for 10 min at 37 °C was performed. Pre-reading was done at 400 nm. 10 µl (0.5 mM) of p-nitrophenyl glucopyranoside were added as a substrate. […] The collection of all data was made thrice. The formula given above allowed to calculate % of inhibition.

Chain of α-glucosidase (P53341 whole entry): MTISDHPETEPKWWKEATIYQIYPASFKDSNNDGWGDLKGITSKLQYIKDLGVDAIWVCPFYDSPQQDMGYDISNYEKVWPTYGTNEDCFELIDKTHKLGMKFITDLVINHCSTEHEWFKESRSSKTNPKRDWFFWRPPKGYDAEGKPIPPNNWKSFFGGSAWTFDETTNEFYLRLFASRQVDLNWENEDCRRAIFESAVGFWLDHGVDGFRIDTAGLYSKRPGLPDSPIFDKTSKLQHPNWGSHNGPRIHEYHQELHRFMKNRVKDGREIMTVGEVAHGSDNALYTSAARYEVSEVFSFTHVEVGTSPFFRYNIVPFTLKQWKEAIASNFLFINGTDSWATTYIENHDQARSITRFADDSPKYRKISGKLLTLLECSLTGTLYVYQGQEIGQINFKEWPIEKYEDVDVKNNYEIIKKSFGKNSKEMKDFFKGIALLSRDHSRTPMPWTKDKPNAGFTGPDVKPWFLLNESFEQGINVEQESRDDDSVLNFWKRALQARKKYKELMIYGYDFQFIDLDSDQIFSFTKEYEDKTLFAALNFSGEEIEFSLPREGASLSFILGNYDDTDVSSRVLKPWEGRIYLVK

C[C@H]1O[C@H](O[C@H]2[C@H](O)[C@@H](O)[C@@H](O[C@H]3[C@H](O)[C@@H](O)C(O)O[C@@H]3CO)O[C@@H]2CO)[C@H](O)[C@@H](O)[C@@H]1N[C@H]1C=C(CO)[C@@H](O)[C@H](O)[C@H]1O (stereo partly shown) [Acarbose]
α-Glucosidase Inhibition (%) at 0.5 Mm: 65.73 ± 1.93%
